One assay deals with P. aeruginosa PAO1. The assay is described as follows: MIC of antibiotics against P. aeruginosa PAO1 with or without polyamines. Type of assay: cell-based. The note with it: hydrophobic antibiotics (FIG. 1).
The subject of assay [1] is E. coli (K10, K12, C921-61). The assay is described as follows: MIC of antibiotics against E. coli strains with or without polyamines (FIG. 3). Type of assay: cell-based. The note with it: E. coli K10, K12, C921-61 and S. typhimurium LT2.
Experimental: (§1) Various strains of bacteria, including P. aeruginosa and e. coli were grown on Luria-Bertani (LB) agar/broth or Mueller-Hinton (MH) agar/broth. […] The antibiotics, chemicals, and/or polyamines were dissolved in double distilled water or solvent and thereafter filtered through a 0.4 μm disposable membranes.
(§2) The MIC values of the strains associated with various combinations of polyamines and antibiotics were determined using standard two-fold agar dilutions techniques and broth dilutions techniques in Mueller-Hinton broth. The lowest concentration of drug with no visible turbidity was deemed the MIC.
Assay [2] has as its system Salmonella typhimurium LT2. Conditions: for MICs in the indicated concentrations (mM) of polyamines: Spermine (1 mM): with 1 mM spermine; for MICs in the indicated concentrations (mM) of polyamines: Spermidine (20 mM): with 20 mM spermidine.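 For all read-outs here: Two-fold agar or broth dilution in Mueller-Hinton broth, MIC taken as lowest drug concentration without visible turbidity, tested alone or combined with polyamines.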
Experimental: as §1, §2
Assay [3] relates to Salmonella typhimurium LT2. Kind of assay: microbe, parasite or virus in culture. Conditions: Salmonella enterica, read-out: MICs in the indicated concentrations (mM) of polyamines: No add.
Experimental: as §1, §2
In assay [4] the test system is methicillin resistant Staphylococcus aureus (MRSA) Mu50. The assay is described as follows: MIC of antibiotics against MRSA Mu50 with or without spermine. Type of assay: cell-based. The note with it: for MIC: Staphylococcus aureus, MRSA, no spermine, read-out: MICs in the presence or absence of spermine (1 mM): No add; for MICs in the presence or absence of spermine (1 mM): Spermine: with 1 mM spermine.

Assay [5] deals with MRSA Staphylococcus aureus 700699. The assay is described as follows: MIC of antibiotics against MRSA Staphylococcus aureus 700699 with or without spermine. Type of assay: cell-based. The note with it: for MIC: Staphylococcus aureus, MRSA, no spermine, read-out: MICs in the absence or presence of spermine: No add; for MICs in the absence or presence of spermine: Spermine (1 mM): with 1 mM spermine.

Molecules are shown by their SMILES. Converted amounts (≈) assume the structure as drawn.

Experimental for P. aeruginosa PAO1: as §1, §2

On to `CC[C@H]1OC(=O)[C@H](C)[C@@H](O[C@H]2C[C@@](C)(OC)[C@@H](O)[C@H](C)O2)[C@H](C)[C@@H](O[C@@H]2O[C@H](C)C[C@H](N(C)C)[C@H]2O)[C@](C)(O)C[C@@H](C)C(=O)[C@H](C)[C@@H](O)[C@]1(C)O` [Erythromycin], for which, in the assay with P. aeruginosa PAO1, the “MIC values in the presence versus the absence of polyamines” value was “identical”. The “susceptibility with the combination of polyamines and antibiotics” value (shortened to “susceptibility with the combination”) in assay [1] is recorded as “improved susceptibility”. Also, in assay [2], the “MICs in the indicated concentrations (mM) of polyamines: Spermine (1 mM)” value (“MICs in the indicated concentrations … (1 mM)” below) came out at 32 µg/mL and the “MICs in the indicated concentrations (mM) of polyamines: Spermidine (20 mM)” value (shortened to “MICs in the indicated concentrations … (20 mM)”) was 64 µg/mL. For the same molecule, the MIC in assay [3] amounted to 64 µg/mL (≈ 87.2 µM).

On to `CC(=O)O[C@H]1C[C@@]2(C)[C@@H](C[C@@H](O)[C@H]3[C@@]4(C)CC[C@@H](O)[C@@H](C)[C@@H]4CC[C@@]32C)/C1=C(\CCC=C(C)C)C(=O)O` [Fusidic acid], for which, in the assay with P. aeruginosa PAO1, the “MIC values in the presence versus the absence of polyamines” value is “identical”. For the same molecule, in assay [1], the “susceptibility with the combination” value was “improved susceptibility”. Moreover, in assay [2], the “MICs in the indicated concentrations … (1 mM)” value was found to be 1024 µg/mL and the “MICs in the indicated concentrations … (20 mM)” value was determined as 1024 µg/mL. Further, the MIC in assay [3] was more than 1020 µg/mL.

As to `CO[C@@H]1[C@@H](OC(N)=O)[C@@H](O)[C@H](Oc2ccc3c(O)c(NC(=O)c4ccc(O)c(CC=C(C)C)c4)c(=O)oc3c2C)OC1(C)C` [Novobiocin], in the assay on P. aeruginosa PAO1, the “MIC values in the presence versus the absence of polyamines” value is given as “identical”. Besides, the “susceptibility with the combination” value in assay [1] is given as “improved susceptibility”. Moreover, in assay [2], the “MICs in the indicated concentrations … (1 mM)” value is 1024 µg/mL and the “MICs in the indicated concentrations … (20 mM)” value stood at 256 µg/mL. Moreover, the MIC in assay [3] is more than 1020 µg/mL.

As for `Cc1onc(-c2ccccc2)c1C(=O)N[C@@H]1C(=O)N2[C@@H]1SC(C)(C)[C@@H]2C(=O)O` [Oxacillin], in assay [4], the MIC was not below 256 µg/mL and the “MICs in the presence or absence of spermine (1 mM): Spermine” value (“MICs in the presence or absence” below) was determined as 1 µg/mL. Moreover, the “decrease of MIC with exogenous spermine” value in assay [4] (spermine 1 mM and less) is on record as “over 100 fold”. Moreover, in assay [5], the MIC is not below 256 µg/mL and the “MICs in the absence or presence of spermine: Spermine (1 mM)” value (“MICs in the absence or presence” for short) was 2 µg/mL. For the same molecule, in assay [1], the “susceptibility with the combination” value is on record as “improved susceptibility”. Further, the “MICs in the indicated concentrations … (20 mM)” value in assay [2] was 64 µg/mL. Besides, in assay [3], the MIC came out at 256 µg/mL (≈ 638 µM).

On to `CCN1CCN(C(=O)N[C@@H](C(=O)N[C@@H]2C(=O)N3[C@@H]2SC(C)(C)[C@@H]3C(=O)O)c2ccccc2)C(=O)C1=O` [Piperacillin], for which, in assay [4], the MIC was determined as 32 µg/mL and the “MICs in the presence or absence” value came to 2 µg/mL. In assay [5], the MIC turned out to be 32 µg/mL and the “MICs in the absence or presence” value is 2 µg/mL. In assay [1], the “susceptibility with the combination” value is “improved susceptibility”. In assay [2], the “MICs in the indicated concentrations … (1 mM)” value was 0.5 µg/mL and the “MICs in the indicated concentrations … (20 mM)” value was determined as 0.25 µg/mL. Further, the MIC in assay [3] turned out to be 4 µg/mL (≈ 7.73 µM).

Turning to `CC1(C)S[C@@H]2[C@H](NC(=O)[C@H](C(=O)O)c3ccsc3)C(=O)N2[C@H]1C(=O)O` [Ticarcillin], in assay [4], the MIC turned out to be 256 µg/mL and the “MICs in the presence or absence” value is 4 µg/mL. Besides, in assay [5], the MIC is 256 µg/mL and the “MICs in the absence or presence” value was 4 µg/mL. Further, the “susceptibility with the combination” value in assay [1] is reported as “improved susceptibility”. Besides, in assay [2], the “MICs in the indicated concentrations … (1 mM)” value came to 0.5 µg/mL and the “MICs in the indicated concentrations … (20 mM)” value amounted to 1 µg/mL. In assay [3], the MIC is 4 µg/mL (≈ 10.4 µM).
